{"source": "patent US11278522B2", "about": "“Use of methadone metabolites for treatment of anxiety and depression” (Georgetown University, priority 2015, dated 2022)", "key": {"[1]": {"test": "Forced swim test (rats)", "format": "in vivo, rat", "conditions": "three doses, 5 min test, vehicle 81 s", "method": "Forced Swim Test (FST; Rats) The FST in rats was conducted as previously described (Porsolt et al., 2001). On day 1, rats were placed in a cylindrical chamber (20 cm in diameter, 46 cm deep) filled to a height of 38 cm with room temperature water for 15 min. After the completion of this pre-exposure test, animals were removed from the apparatus, dried with towels and placed under a heat lamp for ˜30 min. […] Animals were treated with these same doses again 20 h and 23 h after the initial dose. Twenty-four h after the pre-exposure, animals were re-introduced to the apparatus and video-recorded for 5 min. Immobility was hand-scored for each video record by a treatment blind observer (P.A.F.) using ANYmaze (Stoelting) to record the data."}, "[2]": {"test": "Forced swim test (mice)", "format": "in vivo, mouse", "conditions": "6 min test", "method": "Forced Swim Test (FST; Mice) The FST in mice was conducted as previously described [11]. Briefly, 10 min following i.p. injection of saline, EDDP or EMDP, mice were placed in Plexiglas cylinders filled with water (25° C.) for 6 min while being videotaped. The forced swim score for the entire 6 min test was assessed using the Cleversystems videotracking system (CleverSys) and confirmed with visual scoring by a trained observer. A mouse was judged to be immobile when making only those movements necessary to keep its head above water."}, "[3]": {"test": "Open field locomotor activity (rats)", "format": "in vivo, rat", "conditions": "10 mg/kg s.c., 30 min after injection", "method": "Locomotor Activity (Rats) Locomotor activity was measured 30 minutes after sc injection of test compound. Animals were placed in a Plexiglass enclosure (16″×16″×16″, TruScan Arena, Coulbourn Instruments, Whitehall, Pa.) with 770 lux illumination over the center of the arena. Animals were allowed to explore for 20 min, during which total distance traveled was recorded using ANYmaze software (Stoelting Co., Wood Dale, Ill.), as previously described (Forcelli et al., 2012)."}, "[4]": {"system": "opiate receptors", "test": "[3H]-naloxone binding competition in rat forebrain membranes"}, "[5]": {"test": "Elevated plus maze (rats)", "format": "in vivo, rat", "method": "Elevated Plus Maze (Rats) Plus maze testing was performed and scored as previously described (Forcelli and Heinrichs, 2008; Forcelli et al., 2012), in a standard grey rat elevated plus maze (50 cm arms, elevated 40 cm off the ground [Stoelting Co., Wood Dale, Ill.]). Testing was conducted under 20 lux red light, 30 min after drug administration. The number of arm entries and time spent in open and closed arms were recorded using ANYmaze (Stoelting Co, Wood Dale, Ill.)."}, "[6]": {"biological_target": "rat α3β4 nAChR channels (Rattus norvegicus, UniProt P04757+P12392)", "sequence (P04757 26-499)": "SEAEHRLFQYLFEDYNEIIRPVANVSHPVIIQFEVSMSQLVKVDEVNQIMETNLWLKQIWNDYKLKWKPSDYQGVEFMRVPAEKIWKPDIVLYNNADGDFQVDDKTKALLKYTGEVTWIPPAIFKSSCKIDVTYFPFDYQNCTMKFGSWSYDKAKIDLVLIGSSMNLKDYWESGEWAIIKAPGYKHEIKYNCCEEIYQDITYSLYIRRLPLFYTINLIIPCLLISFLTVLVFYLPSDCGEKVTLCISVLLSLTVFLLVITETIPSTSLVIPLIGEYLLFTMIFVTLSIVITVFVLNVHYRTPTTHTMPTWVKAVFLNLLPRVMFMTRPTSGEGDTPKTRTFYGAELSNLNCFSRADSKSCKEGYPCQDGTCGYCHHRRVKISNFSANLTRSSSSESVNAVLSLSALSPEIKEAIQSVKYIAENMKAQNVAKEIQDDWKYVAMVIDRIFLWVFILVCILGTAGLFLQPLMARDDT", "sequence (P12392 21-495)": "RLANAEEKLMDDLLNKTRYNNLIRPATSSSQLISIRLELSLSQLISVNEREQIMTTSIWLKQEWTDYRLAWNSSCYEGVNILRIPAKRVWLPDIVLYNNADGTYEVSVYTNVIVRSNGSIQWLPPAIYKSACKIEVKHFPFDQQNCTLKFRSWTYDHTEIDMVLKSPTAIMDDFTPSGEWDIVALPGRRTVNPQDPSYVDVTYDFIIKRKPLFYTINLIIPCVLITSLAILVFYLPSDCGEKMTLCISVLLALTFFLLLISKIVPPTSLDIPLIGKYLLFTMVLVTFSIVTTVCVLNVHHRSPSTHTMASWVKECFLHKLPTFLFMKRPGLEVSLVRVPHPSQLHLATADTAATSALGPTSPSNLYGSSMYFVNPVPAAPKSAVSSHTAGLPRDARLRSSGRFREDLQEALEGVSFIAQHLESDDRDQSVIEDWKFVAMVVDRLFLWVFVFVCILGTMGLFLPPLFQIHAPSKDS", "conditions": "Xiao et al., 2001; cited from earlier work"}, "[7]": {"test": "Marble burying (mice)", "format": "in vivo, mouse", "conditions": "15 min test, vehicle mean 11 of 20", "method": "Marble Burying (Mice) After a 1 h period of acclimation to the testing room, the mice (n=6-10 per group) were injected i.p. with saline, EDDP, EMDP, or CDP at the doses indicated. Ten minutes later, the mice were placed individually in small cages (26×20×14 cm), in which twenty marbles had been equally distributed on top of mouse bedding (5-cm deep), and a wire lid was placed on top of the cage. Mice were left undisturbed for 15 min, after which time the number of buried marbles (i.e., those covered by bedding three-quarters or more) was counted."}, "[8]": {"biological_target": "T1, human α4β2 nAChRs (Homo sapiens, UniProt P17787+P43681)", "T1 construct": "expressed in transfected cells", "T1 sequence (P43681 29-627 limits assumed)": "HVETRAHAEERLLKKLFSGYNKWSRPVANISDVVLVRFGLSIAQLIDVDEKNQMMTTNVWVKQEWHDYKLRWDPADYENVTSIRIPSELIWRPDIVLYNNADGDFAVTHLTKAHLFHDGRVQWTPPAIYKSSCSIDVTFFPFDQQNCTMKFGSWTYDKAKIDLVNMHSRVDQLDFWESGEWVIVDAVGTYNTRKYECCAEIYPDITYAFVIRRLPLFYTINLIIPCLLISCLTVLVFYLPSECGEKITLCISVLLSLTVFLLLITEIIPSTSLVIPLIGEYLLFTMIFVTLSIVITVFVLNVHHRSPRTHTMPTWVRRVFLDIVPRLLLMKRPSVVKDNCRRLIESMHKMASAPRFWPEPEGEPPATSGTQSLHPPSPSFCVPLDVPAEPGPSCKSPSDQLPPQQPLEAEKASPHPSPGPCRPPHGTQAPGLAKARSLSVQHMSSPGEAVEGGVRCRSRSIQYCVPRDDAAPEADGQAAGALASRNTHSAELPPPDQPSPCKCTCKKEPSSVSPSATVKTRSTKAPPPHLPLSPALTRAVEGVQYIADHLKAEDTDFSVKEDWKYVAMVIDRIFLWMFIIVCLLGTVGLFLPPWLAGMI", "T1 sequence (P17787 26-502)": "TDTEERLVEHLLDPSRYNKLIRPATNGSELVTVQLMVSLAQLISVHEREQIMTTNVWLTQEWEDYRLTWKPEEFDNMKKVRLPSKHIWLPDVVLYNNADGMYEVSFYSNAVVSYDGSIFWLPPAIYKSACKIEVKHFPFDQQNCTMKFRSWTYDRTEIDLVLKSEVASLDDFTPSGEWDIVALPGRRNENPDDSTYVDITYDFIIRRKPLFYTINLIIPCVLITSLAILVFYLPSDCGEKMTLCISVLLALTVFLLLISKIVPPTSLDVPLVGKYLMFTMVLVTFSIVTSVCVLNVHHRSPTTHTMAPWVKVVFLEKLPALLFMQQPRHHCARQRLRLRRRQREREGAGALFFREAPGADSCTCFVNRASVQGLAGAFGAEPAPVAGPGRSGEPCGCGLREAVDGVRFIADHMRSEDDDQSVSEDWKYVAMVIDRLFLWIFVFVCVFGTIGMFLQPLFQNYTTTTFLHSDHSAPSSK", "test": "86Rb+ efflux assay, inhibition of nicotine-stimulated efflux, α4β2 nAChRs", "format": "cell-based", "conditions": "86Rb+ efflux stimulated by 100 μM nicotine; HEK cells YXα4β2H1; mean ± standard error", "method": "(§1) Stable cell lines and ^86Rb^+ efflux Assay. The cell lines expressing human α4β2 (YXα4β2H1) and α3β4 (YXα3β4H1) nAChRs were established recently (Xiao el al., 2012). These cell lines were maintained in minimum essential medium (MEM) supplemented with 10% fetal bovine serum, 100 units/mL penicillin G, […] streptomycin and selective antibiotics at 37° C. with 5% CO2 in a humidified incubator. Tissue culture medium and antibiotics were obtained from Invitrogen Corporation (Carlsbad, Calif.), unless otherwise stated. Fetal bovine serum was obtained from Gemini Bio-Products (Woodland, Calif.).\n(§2) Functional properties of compounds at nAChRs expressed in the transfected cells were measured using ^86Rb^+ efflux assays as described previously (Xiao et al., 1998, 2001). In brief, cells were plated into 24-well plates coated with poly-D-lysine. The plated cells were grown at 37° C. for 18 to 24 hour to reach 85-95% confluence. The cells were then incubated in growth medium (0.5 mL/well) containing ^86Rb^+ (2 μCi/mL) for 4 hour at 37° C. The loading mixture was then aspirated, and the cells were washed four times with 1 mL buffer (15 mM HEPES, 140 mM NaCl, 2 mM KCl, 1 mM MgSO4, 1.8 mM CaCl2), 11 mM Glucose, pH 7.4). One mL of buffer with or without compounds to be tested was then added to each well. After incubation for 2 min, the assay buffer was collected for measurements of ^86Rb^+ released from the cells. Cells were then lysed by adding 1 mL of 100 mM NaOH to each well, and the lysate was collected for determination of the amount of ^86Rb^+ that was in the cells at the end of the efflux assay. Radioactivity of assay samples and lysates was measured by liquid scintillation counting. Total loading (cpm) was calculated as the sum of the assay sample and the lysate of each well, and the amount of ^86Rb^+ efflux was expressed as a percentage of ^86Rb^+ loaded. Stimulated ^86Rb^+ efflux was defined as the difference between efflux in the presence and absence of nicotine. […] IC50 values were determined by nonlinear least-squares regression analyses (GraphPad. San Diego, Calif.)."}, "[9]": {"biological_target": "T2, human α3β4 nAChRs (Homo sapiens, UniProt P30926+P32297)", "T2 construct": "expressed in transfected cells", "T2 sequence (P32297 32-505)": "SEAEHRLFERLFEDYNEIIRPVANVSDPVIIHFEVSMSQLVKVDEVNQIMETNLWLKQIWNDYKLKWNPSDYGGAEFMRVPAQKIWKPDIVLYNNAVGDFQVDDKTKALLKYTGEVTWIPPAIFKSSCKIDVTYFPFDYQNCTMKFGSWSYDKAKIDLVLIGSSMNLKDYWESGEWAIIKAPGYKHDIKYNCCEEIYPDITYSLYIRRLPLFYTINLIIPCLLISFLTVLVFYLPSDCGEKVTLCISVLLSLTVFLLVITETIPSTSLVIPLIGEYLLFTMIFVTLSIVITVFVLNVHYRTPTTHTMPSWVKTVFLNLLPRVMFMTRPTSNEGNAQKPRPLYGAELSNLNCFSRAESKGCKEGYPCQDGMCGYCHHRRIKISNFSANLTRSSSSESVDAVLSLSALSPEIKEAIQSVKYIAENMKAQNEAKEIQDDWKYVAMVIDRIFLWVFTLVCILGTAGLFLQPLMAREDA", "T2 sequence (P30926 22-498)": "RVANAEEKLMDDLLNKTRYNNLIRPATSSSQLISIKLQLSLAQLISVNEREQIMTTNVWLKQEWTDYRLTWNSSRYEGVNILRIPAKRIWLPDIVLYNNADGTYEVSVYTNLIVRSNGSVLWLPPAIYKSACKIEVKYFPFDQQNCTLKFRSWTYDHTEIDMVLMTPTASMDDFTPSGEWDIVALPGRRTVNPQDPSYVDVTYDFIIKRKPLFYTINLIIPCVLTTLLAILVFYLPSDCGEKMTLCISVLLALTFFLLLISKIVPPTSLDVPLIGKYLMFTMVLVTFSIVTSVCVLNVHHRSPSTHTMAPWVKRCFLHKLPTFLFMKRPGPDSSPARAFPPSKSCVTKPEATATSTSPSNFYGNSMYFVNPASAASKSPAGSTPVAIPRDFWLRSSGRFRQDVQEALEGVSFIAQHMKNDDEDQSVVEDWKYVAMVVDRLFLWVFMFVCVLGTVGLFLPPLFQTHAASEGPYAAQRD", "test": "86Rb+ efflux assay, inhibition of nicotine-stimulated efflux, α3β4 nAChRs", "format": "cell-based", "conditions": "86Rb+ efflux stimulated by 100 μM nicotine; HEK cells YXα3β4H1; mean ± standard error", "method": "as §1, with “The cell lines expressing human α4β2 (YXα4β2H1) and α3β4 (YXα3β4H1) nAChRs were established recently (Xiao el al., 2012).” left out\nas §2, with “In” for “Functional properties of compounds at nAChRs expressed in the transfected cells were measured using ^86Rb^+ efflux assays as described previously (Xiao et al., 1998, 2001). In”, “The plated cells were grown at 37° C. for 18 to 24 hour to reach 85-95% confluence.” left out"}, "[10]": {"test": "Eyelid ptosis assessment (rats)", "format": "in vivo, rat", "conditions": "5 mg/kg", "method": "Ptosis was assessed as previously described (Rubin et al., 1957). Each animal was photographed while gently restrained by hand. Photographs were analyzed by a treatment blind observer (P.A.F.) and assigned a score of 0 (no ptosis, eye completely open), 1 (mild, eye partially closed), 2 (moderate, eye half closed), 3 (severe, eye […] closed), or 4 (complete, eye completely closed)."}}, "note": "“And” between values parts separate entries of the source, which are not always exact repeats. Equal entries are not always repeated. Structures can show the parent of a compound that is named as a salt."}
{"smiles": "CC=C1N(C)C(C)CC1(c1ccccc1)c1ccccc1", "note": "(racemic) [EDDP, 2-ethylidene-1,5-dimethyl-3,3-diphenylpyrrolidine]", "values": [{"measurement": "immobile time in forced swim test vs vehicle", "setting": "[1]; 10 mg/kg s.c.", "result": "without effect"}, {"measurement": "duration of immobility in forced swim test vs vehicle", "setting": "[2]; 1 mg/kg i.p.", "result": "did not produce a significant effect"}, {"measurement": "duration of immobility in forced swim test vs vehicle", "setting": "[2]; 5 mg/kg i.p.", "result": "did not produce a significant effect"}, {"measurement": "duration of immobility in forced swim test vs vehicle", "setting": "[2]; 10 mg/kg i.p.", "result": "did not produce a significant effect"}, {"measurement": "open field locomotor activity", "setting": "[3]", "result": "neither EDDP nor EMDP significantly altered"}, {"measurement": "apparent affinity, fold lower than that of methadone", "setting": "[4]; rat forebrain [3H]-naloxone binding", "result": "~83 fold and 84 fold"}, {"measurement": "fraction of [3H]-naloxone binding sites competed for", "setting": "[4]; rat forebrain membranes", "result": "nearly all of the binding sites"}, {"measurement": "Ki", "setting": "[4]; rat forebrain membranes, 2 nM [3H]-naloxone, single-site model", "result": 918, "unit": "nM"}, {"measurement": "mean duration in the open arms of the elevated plus maze", "setting": "[5]; 10 mg/kg s.c., 30 min after drug, vehicle 104 s", "result": 80, "unit": "s"}, {"measurement": "percentage of entries made into the open arms of the plus maze", "setting": "[5]; vs vehicle", "result": "the groups did not differ"}, {"measurement": "latency to first entry in the open arms", "setting": "[5]; vs vehicle (data not shown)", "result": "did not differ as a function of treatment group"}, {"measurement": "block of rat α3β4 nAChR channels", "setting": "[6]", "result": "potently block"}, {"measurement": "number of marbles buried vs vehicle", "setting": "[7]; 5 mg/kg i.p.", "result": "buried significantly fewer marbles"}, {"measurement": "number of marbles buried vs vehicle", "setting": "[7]; 10 mg/kg i.p.", "result": "did not reach statistical significance"}]}
{"smiles": "CC=C1N(C)C(C)CC1(c1ccccc1)c1ccccc1", "note": "(single isomer, unassigned; (+)) [(+)-EDDP, 2-ethylidene-1,5,dimethyl-3,3-diphenylpyrrolidine perchlorate]", "values": [{"measurement": "IC50", "setting": "[8]", "result": "1800 ± 600", "unit": "nM"}, {"measurement": "IC50", "setting": "[9]", "result": "900 ± 90", "unit": "nM"}]}
{"smiles": "CCC1=NC(C)CC1(c1ccccc1)c1ccccc1", "note": "(single isomer, unassigned; (+)) [(+)-EMDP, 2-ethyl-5-methyl-3,3-diphenyl-1-pyrroline hydrochloride]", "values": [{"measurement": "IC50", "setting": "[8]", "result": "24000 ± 5000", "unit": "nM"}, {"measurement": "IC50", "setting": "[9]", "result": "7400 ± 2100", "unit": "nM"}]}
{"smiles": "CC=C1N(C)C(C)CC1(c1ccccc1)c1ccccc1", "note": "(single isomer, unassigned; (-)) [(−)-EDDP, 2-ethylidene-1,5,dimethyl-3,3-diphenylpyrrolidine perchlorate]", "values": [{"measurement": "IC50", "setting": "[8]", "result": "1400 ± 200", "unit": "nM"}, {"measurement": "IC50", "setting": "[9]", "result": "700 ± 60", "unit": "nM"}]}
{"smiles": "CCC1=NC(C)CC1(c1ccccc1)c1ccccc1", "note": "(single isomer, unassigned; (-)) [(−)-EMDP, 2-ethyl-5-methyl-3,3-diphenyl-1-pyrroline hydrochloride]", "values": [{"measurement": "IC50", "setting": "[8]", "result": "19000 ± 4000", "unit": "nM"}, {"measurement": "IC50", "setting": "[9]", "result": "7000 ± 1200", "unit": "nM"}]}
{"smiles": "CNC1=Nc2ccc(Cl)cc2C(c2ccccc2)=[N+]([O-])C1", "note": "[CDP, chlordiazepoxide HCl, reference compound]", "values": [{"measurement": "number of marbles buried vs vehicle", "setting": "[7]; 10 mg/kg i.p.", "result": "buried significantly fewer marbles"}]}
{"smiles": "CNC1(C)C2CCC(C2)C1(C)C", "note": "(centres unmarked) [Mecamylamine, Mecamylamine HCl]", "values": [{"measurement": "IC50", "setting": "[8]", "result": "1000 ± 300", "unit": "nM"}, {"measurement": "eyelid ptosis quantified over 3 h", "setting": "[10]", "result": "produced ptosis in a time-dependent manner"}, {"measurement": "onset of ptosis after injection", "setting": "[10]", "result": "≤ 15", "unit": "min"}, {"measurement": "ptosis observed during forced swim tests", "setting": "[10]", "result": "obvious ptosis"}, {"measurement": "immobile time in forced swim test vs vehicle", "setting": "[1]; 5 mg/kg s.c.", "result": "reduced immobile time"}]}
{"smiles": "CN[C@H]1CC[C@@H](c2ccc(Cl)c(Cl)c2)c2ccccc21", "note": "[sertraline, sertraline HCl, reference compound]", "values": [{"measurement": "immobile time in forced swim test vs vehicle", "setting": "[1]; 20 mg/kg s.c.", "result": "significantly reduced immobile time"}]}
